According to patent US5091379A, “Topical antinflammatory compositions with minimal systemic absorption” (Du Pont Merck Pharmaceutical Company, priority 1989, dated 1992):
Values joined by “and” are separate entries in the source; they are usually repeats but may differ in a detail not shown here. Identical values can stand only once.

Tests used:
[1] = In vivo absorption: excretion of radioactivity in rat urine and feces; parameters: species or system Male Sprague-Dawley rats; settings: for Percent of Dose Excreted in Feces / Percent of Dose Excreted in Urine / Percent of Dose Excreted, Total: IV 5 mg/kg
Method: Approximately 10 mg of 14C-2-phenylmethyl-1-naphthol and 4.99 g of unlabeled 2-phenylmethyl-1-naphthol were used in the preparation of a 100 g 5% ointment or cream. The ointment was a PEG-based ointment and the cream was an oil-in-water emulsion. The specific activities for the ointment and cream were 2.71 and 2.78 uCi/g, respectively. An IV dosing solution (2.5 mg/mL) was prepared prior to dose administration by dissolving radiolabeled 14C-2-phenylmethyl-1-naphthol and unlabeled compound (1:1.5 ratio) in a PEG 400/water (60/40 v/v) solution.
Male Sprague-Dawley rats weighing 240-300 g were used for the studies. Sixteen rats were shaved on the back one day prior to the treatment. Eight of the rats had the application site abraded by a diamond-tipped marker (2 parallel lines and 2 interceding lines). The abrasion penetrated only the stratum corneum, but not the dermis. A 0.5 g dose of 14C-2-phenylmethyl-1-naphthol ointment or cream was applied to an area of approximately 4 cm^2 on 4 nonabraded and 4 abraded rats. The treatment site was covered with gauze and occluded with a dental dam. It was further secured by micropore tape and a strip of adhesive elastoplast. Each rat was placed in an open metabolism cage. […] Four other rats weighing 270-320 g were given an intravenous dose.
In order to determine the percent of dose in the ointment or cream that was absorbed percutaneously into the systemic circulation, an IV dose of 14C-2-phenylmethyl-1-naphthol was given to rats. The total radioactivity excreted after the IV dose serves as a reference for evaluation of topical absorption. […] The reason for the low radioactivity recovery is unknown. The percutaneous absorption from the ointment was about 2% of the applied dose. On the other hand, absorption from the cream was much higher and was about 28% of the dose.

5-lipoxygenase = settings: cited from earlier work
AA-induced edema = assay: AA-induced ear edema, topical antiinflammatory activity; format: in vivo, Male CF1 mice; settings: for % Inhibition: 3 h pretreatment
Method: The AA model was also used to evaluate and compare PEG ointment formulations containing 2-phenylmethyl-1-naphthol with oil/water cream formulations containing 2-phenylmethyl-1-naphthol. These comparisons are illustrated in Examples 5 to 7.
Male 18-20 gram CF1 mice were used in these experiments. AA was made up fresh daily in acetone at a concentration of about 100 mg/ml. 10 μl of the AA solution (1 mg AA) was applied to the inner surface of the ear to induce swelling. […] Control animals were pretreated about 3 hours before AA application with placebo vehicles (drug free ointment or cream) with 5 mg of vehicle applied to both ears. Drug-treated animals were pretreated about 3 hours before AA application with 5 mg of the vehicle containing active drug, applied to both ears. AA was applied to 1 ear of each mouse. One hour after AA challenge, the animals were euthanized by cervical dislocation and both ears were removed. 6 mm disks were then taken using a skin biopsy punch and weighed. Swelling was determined as the difference between the weights of the AA and vehicle treated ears. Percent inhibition of swelling was calculated as follows: [formula]
Table 7 summarizes the data for PEG ointment and oil/water cream formulations containing various concentrations of active compound. Each data point is the average of 2 experiments with 10 animals per treatment cell.

[2] = In vitro penetration through (inflammed) hairless mouse skin; format: in vitro ADME; settings: Study I, 25 mg/0.1 ml acetone
Method: The acetone vehicles were allowed to dry. […] The donor chamber was sealed with parafilm.
Studies were performed in which skin inflammation was induced in hairless mice in vivo, and permeability of that skin was evaluated in vitro. The three studies differed in the methods of producing inflammation. A non-inflammed control was run for each. The formulations tested were the oil/water cream and PEG ointment containing excipients (See Table 2) as in the previous example. There was no difference between the control and inflammed skin in active compound flux in all studies and for all formulations, except study II with 5% cream. […] As with human skin, acetone and cream vehicles consistently gave higher skin penetration rates than the PEG ointment.

[3] = Hydrolysis of 2 to 3 in solution and during skin penetration; format: physicochemical

Oc1c(Cc2ccccc2)ccc2ccccc12 [14C-1, 14C-2-phenylmethyl-1-naphthol]
Percent of Dose Excreted in Feces ([1]; individual rats, 5 mg/kg): 38.86% and 38.32% and 40.39% and 37.91%
Percent of Dose Excreted in Urine ([1]; individual rats, 5 mg/kg): 8.55% and 7.84% and 8.96% and 8.74%
Percent of Dose Excreted, Total ([1]; individual rats, 5 mg/kg): 47.41% and 46.16% and 49.35% and 46.65%
Percent of Dose Excreted in Feces ([1]; mean of 4 rats): 38.87%
Percent of Dose Excreted in Urine ([1]; mean of 4 rats): 8.52%
Percent of Dose Excreted, Total ([1]; mean of 4 rats): 47.39%
percutaneous absorption ([1]; from PEG ointment, percent of applied dose): about 2%
percutaneous absorption ([1]; from cream, percent of dose): about 28%
detectable radioactivity in the urine ([1]; topical ointment or cream, daily collection): no detectable radioactivity was found in the urine

Oc1c(Cc2ccccc2)ccc2ccccc12 [compound 1, 2-(phenylmethyl)-1-naphthol]
inhibition of 5-lipoxygenase (5-lipoxygenase): exceptionally potent inhibitors of 5-lipoxygenase
% Inhibition (AA-induced edema; PEG ointment, 0.5% 1): 15%
% Inhibition (AA-induced edema; PEG ointment, 1% 1): 62%
% Inhibition (AA-induced edema; PEG ointment, 5% 1): 70%
% Inhibition (AA-induced edema; PEG ointment, 10% 1): 90%
% Inhibition (AA-induced edema; cream, 0.5% 1): 26%
% Inhibition (AA-induced edema; cream, 1% 1): 60%
% Inhibition (AA-induced edema; cream, 5% 1): 86%
% Inhibition (AA-induced edema; cream, 10% 1): 87%
inhibiting the edema induced by topical arachidonic acid (AA-induced edema; mouse, in vivo): very potent in inhibiting the edema
Lag Time ([2]; AA inflammed skin): 13.8 ± 1.3 h
Lag Time ([2]; control skin): 10.8 ± 1.7 h

CC(=O)Oc1c(Cc2ccccc2)ccc2c1ccn2C [compound 2, 1-methyl-4-acetoxy-5-phenylmethyl indole]
hydrolysis [3]: hydrolyzes to 1-methyl-4-hydroxy-5-phenylmethyl indole (3)
